Measured values from publication PMC6602942, “Vertebrates originally possess four functional subtypes of G protein-coupled melatonin receptor” (Scientific Reports, 2019).
Several values for one entry are separate records, joined by “and”; a condition that tells them apart may be missing. Equal entries are not always repeated. Where two headings read alike, the source gives them in different places.

Columns and labels:
medaka MTNR1a [1] = biological target: T1, medaka MTNR1a (Oryzias latipes, UniProt H2LVT7); conditions: maximal inhibition of melatonin (EC90) effect; 100% = forskolin level; ND: not detected
T1 sequence (H2LVT7 1-347): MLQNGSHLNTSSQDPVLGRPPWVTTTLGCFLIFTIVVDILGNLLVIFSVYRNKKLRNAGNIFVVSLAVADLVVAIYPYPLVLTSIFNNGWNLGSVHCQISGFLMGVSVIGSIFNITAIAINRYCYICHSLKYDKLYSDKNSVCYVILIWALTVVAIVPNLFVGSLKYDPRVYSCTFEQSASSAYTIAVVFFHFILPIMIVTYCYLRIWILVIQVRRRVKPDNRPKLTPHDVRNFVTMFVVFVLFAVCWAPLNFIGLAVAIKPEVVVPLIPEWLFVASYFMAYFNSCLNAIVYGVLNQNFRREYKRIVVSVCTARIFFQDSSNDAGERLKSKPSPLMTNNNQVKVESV
Protocol: (§4) Hepa-E1 cells were seeded in 9 cm dishes prior to transfection. Both plasmids, pCRE-luc as well as expression vectors for medaka mtnrs were linearized by PCR and transfected with X-tremeGENE 9 (Roche) according to the manufacturer’s instructions. Stably transfected cells were selected with G418. After selection, each colony was collected by pipetting. Sensitivity for cAMP in each clone was tested by forskolin treatment after seeding into 96-well plates with E-RDF medium (Kyokuto, Tokyo, Japan) and supplemented with 5% dextran-charcoal treated fetal bovine serum. After 24 h the cells were collected, and cellular luciferase activities were measured by luminescence assay with the Steady-Glo Assay System Kit (Promega) according to the manufacturer’s instructions. […]
(§5) Cells derived from a chosen clone or MRNR1c-tranfected cells were seeded at 10^4 cells per well in 96-well luminometer plates. […] After 24 h, luciferase activities were measured as described above. Concentration-response curves were fitted and the EC50 or IC50 were calculated using sigmoidal fit in GraphPad Prism5. […] The antagonistic index (AI) of each reagent was expressed as a percentage of the maximal inhibition of the reagent. Maximal inhibition was calculated as the quotient of the subtraction of the luminescence for melatonin from the maximal luminescence for the reagent divided by the maximal inhibition of melatonin. […]

medaka MTNR1c [2] = biological target: T2, medaka MTNR1c (Oryzias latipes, UniProt A0A0D6A8H7); assay: cAMP-responsive (CRE-luc) reporter gene assay, agonist mode; format: cell-based; conditions: for Emax / RAA (%) MTNR1c (relative agonistic activity): maximal activity as percentage of that of melatonin, Hepa-E1 cells, forskolin, ND: not detected; for Emax: read-out: RAA (%) MTNR1c (relative agonistic activity)
T2 sequence (A0A0D6A8H7 entry or part of it): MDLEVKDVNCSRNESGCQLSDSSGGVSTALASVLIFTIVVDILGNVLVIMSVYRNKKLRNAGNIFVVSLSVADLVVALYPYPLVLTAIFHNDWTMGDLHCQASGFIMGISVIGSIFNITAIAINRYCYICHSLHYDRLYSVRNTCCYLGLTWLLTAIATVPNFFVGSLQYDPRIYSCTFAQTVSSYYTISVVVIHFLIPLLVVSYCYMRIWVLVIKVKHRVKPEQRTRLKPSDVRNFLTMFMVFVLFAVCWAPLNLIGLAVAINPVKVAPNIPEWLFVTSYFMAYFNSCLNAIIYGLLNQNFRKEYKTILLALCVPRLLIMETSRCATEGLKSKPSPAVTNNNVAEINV
Text: (§1) Expression vectors for medaka mtnr genes, (pcDNA-OlMTNR1a, pcDNA-OlMTNR1b, pcDNA-OlMTNR1c and pcDNA-OlMTNR1a-like) were constructed by PCR amplification of the entire protein coding region, using primers which introduced in-frame Kozak sequence[33] at the 5′ end. A cyclic adenosine monophosphate (cAMP)-regulated reporter vector containing the luciferase gene under the control of a cAMP response element upstream of the TATA-like promoter region from the herpes simplex virus thymidine kinase promoter, named pCRE-luc, originated from the Pathway Profiling Luciferase System (Clontech). Hepa-E1 cells, i.e. epithelial-like Nile tilapia hepatocytes, were obtained from the Institute of Physical and Chemical Research (RIKEN) cell bank (Tsukuba, Japan). For MTNR1a, MTNR1b and MTNR1d, stable transfections were performed as described below. Hepa-E1 cells were seeded in 9 cm dishes prior to transfection. Both plasmids, pCRE-luc as well as expression vectors for medaka mtnrs were linearized by […] and transfected with X-tremeGENE 9 (Roche) according to the manufacturer’s instructions. Stably transfected cells were selected with G418. After selection, each colony was collected by pipetting. Sensitivity for cAMP in each clone was tested by forskolin treatment after seeding into 96-well plates with E-RDF medium (Kyokuto, Tokyo, Japan) and supplemented with 5% dextran-charcoal treated fetal bovine serum. After 24 h the cells were collected, and cellular luciferase activities were measured by luminescence assay with the Steady-Glo Assay System Kit (Promega) according to the manufacturer’s instructions. Forskolin-sensitive cell lines derived from co-transfection of pCRE-luc and pcDNA3.1(+) were developed as control lines and named null-CRE-luc. Forskolin-sensitive cell lines derived from co-transfection of pCRE-luc and each pcDNA-OlMTNR1 were selected for by sensitivity for melatonin.
(§2) For MTNR1c, transient transfection was performed as outlined below. The MTNR1c experiment was performed using Hepa-E1 cells in 9 cm dishes, which were transiently transfected by pcDNA-OlMTNR1c (500 ng) and pCRE-luc (5000 ng) by TransIT-X2 Dynamic Delivery System (Mirus) and incubated 24 h before seeding, following the manufacturer’s instructions. Cells derived from a chosen clone or MRNR1c-tranfected cells were seeded at 10^4 cells per well in 96-well luminometer plates. Then, cells were treated with test chemicals in triplicate at four-fold serial dilutions in the presence or absence of melatonin with 6.25 × 10^−7 M forskolin. For testing the antagonistic effect, reagents were mixed with melatonin at 90% effective concentration (EC90). Negative control wells were dosed with media plus 0.1% ethanol. Positive control wells were dosed with 1 μM melatonin. After 24 h, luciferase activities were measured as described above. Concentration-response curves were fitted and the EC50 or IC50 were calculated using sigmoidal fit in GraphPad Prism5. The relative agonistic activity (RAA) of each reagent was expressed as a percentage of the maximal activity for the reporter induction to that of melatonin. The antagonistic index (AI) of each reagent was expressed as a percentage of the maximal inhibition of the reagent. Maximal inhibition was calculated as the quotient of the subtraction of the luminescence for melatonin from the maximal luminescence for the reagent divided by the maximal inhibition of melatonin. When the reagent inhibits the transactivity to the same level of that of the vehicle control (forskolin), the AI equals 100%.

[3] = biological target: T3, medaka MTNR1a-like (MTNR1d) (Oryzias latipes, UniProt A0A3B3HMP3); assay: as above; format: cell-based; conditions: for Emax: read-out: RAA (%) MTNR1a-like (relative agonistic activity); for agonistic activity in medaka MTNR1d: reporter assay without melatonin
T3 sequence (A0A3B3HMP3 1-354): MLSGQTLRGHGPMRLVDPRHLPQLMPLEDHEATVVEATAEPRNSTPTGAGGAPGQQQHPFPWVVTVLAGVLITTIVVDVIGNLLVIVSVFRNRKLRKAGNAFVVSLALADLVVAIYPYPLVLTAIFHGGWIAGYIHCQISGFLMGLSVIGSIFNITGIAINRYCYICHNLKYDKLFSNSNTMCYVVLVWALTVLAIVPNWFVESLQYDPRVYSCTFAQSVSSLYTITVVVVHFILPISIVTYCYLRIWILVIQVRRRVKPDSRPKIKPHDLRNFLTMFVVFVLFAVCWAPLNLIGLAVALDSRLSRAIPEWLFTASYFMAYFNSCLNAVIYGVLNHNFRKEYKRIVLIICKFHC
Text: as §1, §2

medaka MTNR1a [4] = biological target: T1, medaka MTNR1a; assay: as above; format: cell-based; conditions: for RAA (%) MTNR1a (relative agonistic activity): maximal activity as percentage of that of melatonin; for agonistic activity in medaka MTNR1a: reporter assay without melatonin
Text: as §1, §2

medaka MTNR1c [5] = biological target: T2, medaka MTNR1c; assay: cAMP-responsive (CRE-luc) reporter gene assay, antagonist mode with EC90 melatonin; format: cell-based; conditions: maximal inhibition of melatonin (EC90) effect; 100% = forskolin level; ND: not detected
Text: as §1
(§3) For MTNR1c, transient transfection was performed as outlined below. […] After 24 h, luciferase activities were measured as described above. Concentration-response curves were fitted and the EC50 or IC50 were calculated using sigmoidal fit in GraphPad Prism5. The relative agonistic activity (RAA) of each reagent was expressed as a percentage of the maximal activity for the reporter induction to that of melatonin. The antagonistic index (AI) of each reagent was expressed as a percentage of the maximal inhibition of the reagent. Maximal inhibition was calculated as the quotient of the subtraction of the luminescence for melatonin from the maximal luminescence for the reagent divided by the maximal inhibition of melatonin. […]

medaka MTNR1b [6] = biological target: T4, medaka MTNR1b (Oryzias latipes, UniProt A0ACM8R453); assay: as above; format: cell-based; conditions: for AI (%) MTNR1b (antagonistic index): maximal inhibition of melatonin (EC90) effect, 100% = forskolin level, ND: not detected
T4 sequence (A0ACM8R453 1-364): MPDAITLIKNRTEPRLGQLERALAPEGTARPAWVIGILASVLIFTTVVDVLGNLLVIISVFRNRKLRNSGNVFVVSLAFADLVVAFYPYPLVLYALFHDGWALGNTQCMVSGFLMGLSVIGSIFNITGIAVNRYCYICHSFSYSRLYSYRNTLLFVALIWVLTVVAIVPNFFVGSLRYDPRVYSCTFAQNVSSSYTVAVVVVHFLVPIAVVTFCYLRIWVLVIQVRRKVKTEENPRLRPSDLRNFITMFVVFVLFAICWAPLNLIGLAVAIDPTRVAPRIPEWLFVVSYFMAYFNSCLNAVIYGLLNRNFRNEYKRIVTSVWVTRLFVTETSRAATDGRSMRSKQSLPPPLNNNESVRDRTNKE
Text: as §1, §3

[7] = biological target: T3, medaka MTNR1a-like (MTNR1d); conditions: maximal inhibition of melatonin (EC90) effect; 100% = forskolin level; ND: not detected
Protocol: as §4, §5

medaka MTNR1b [8] = biological target: T4, medaka MTNR1b; assay: cAMP-responsive (CRE-luc) reporter gene assay, agonist mode; format: cell-based; conditions: for RAA (%) MTNR1b (relative agonistic activity): maximal activity as percentage of that of melatonin, Hepa-E1 cells, forskolin, ND: not detected
Text: as §1, §2

[9] = maximal activity as percentage of that of melatonin, Hepa-E1 cells, forskolin, 24 h, ND: not detected
[10] = stably transfected Hepa-E1 cells, 6.25 × 10^−7 M forskolin, 24 h, NC: not calculable (low activity, curve did not reach maximum), read-out: Potency (M) MTNR1a
[11] = 24 h, listed as 2-Iodomelatonin
[12] = stably transfected Hepa-E1 cells, 6.25 × 10^−7 M forskolin, 24 h, NC: not calculable (low activity, curve did not reach maximum), read-out: Potency (M) MTNR1a-like

CC(=O)NCCc1c(Cc2ccccc2)[nH]c2ccccc12 [Luzindole]
AI (%) MTNR1a (antagonistic index) (medaka MTNR1a [1]): did not exhibit inhibition
Emax (medaka MTNR1c [2]; 24 h, 24 h): 118%
EC50 (medaka MTNR1c [2]; MTNR1c-transfected Hepa-E1 cells, cAMP-responsive reporter, read-out: EC50 MTNR1c): > 1e-06 M
RAA (%) MTNR1c (relative agonistic activity) (medaka MTNR1c [2]; 24 h, 1440 min): 117.6 ± 11.5%
EC50 ([3]; MTNR1d (MTNR1a-like) transfected Hepa-E1 cells, cAMP-responsive reporter, read-out: EC50 MTNR1d): > 1e-06 M
Emax [3, 9]: 83.1%
agonistic activity in medaka MTNR1d [3]: exhibited agonistic activity
RAA (%) MTNR1a (relative agonistic activity) (medaka MTNR1a [4]; Hepa-E1 cells, forskolin, 24 h, ND: not detected, 1440 min): 68.2 ± 3.8%
RAA (%) MTNR1a (relative agonistic activity) (medaka MTNR1a [4]; Hepa-E1 cells, forskolin, 24 h, ND: not detected, listed as luzindole, 1440 min): less than 100%
agonistic activity in medaka MTNR1a (medaka MTNR1a [4]): exhibited agonistic activity
EC50 (medaka MTNR1a [4]; [10]): 3.3e-07 M
AI (%) MTNR1c (antagonistic index) (medaka MTNR1c [5]): did not exhibit inhibition
AI (%) MTNR1b (antagonistic index) (medaka MTNR1b [6]): did not exhibit inhibition
AI (%) MTNR1a-like (antagonistic index) [7]: did not exhibit inhibition

COc1ccc2[nH]c(I)c(CCNC(C)=O)c2c1 [2-Iodo melatonin, 2-Iodomelatonin]
RAA (%) MTNR1c (relative agonistic activity) (medaka MTNR1c [2]; 24 h): 111.8 ± 3.2%
RAA (%) MTNR1c (relative agonistic activity) (medaka MTNR1c [2]; [11]): 112%
EC50 (medaka MTNR1c [2]; transiently transfected Hepa-E1 cells, 6.25 × 10^−7 M forskolin, 24 h, NC: not calculable (low activity, curve did not reach maximum), read-out: Potency (M) MTNR1c): 1.3e-11 M
RAA (%) MTNR1a-like (relative agonistic activity) [3, 9]: 69.3 ± 6.8%
RAA (%) MTNR1a-like (relative agonistic activity) ([3]; maximal activity as percentage of that of melatonin, Hepa-E1 cells, forskolin, 24 h, ND: not detected, listed as 2-Iodomelatonin): 69.3%
EC50 [3, 12]: 4e-10 M
RAA (%) MTNR1a (relative agonistic activity) (medaka MTNR1a [4]; Hepa-E1 cells, forskolin, 24 h, ND: not detected): 95.8 ± 6.9%
RAA (%) MTNR1a (relative agonistic activity) (medaka MTNR1a [4]; Hepa-E1 cells, forskolin, 24 h, ND: not detected, listed as 2-Iodomelatonin): less than 100%
EC50 (medaka MTNR1a [4]; [10]): 2.7e-11 M
RAA (%) MTNR1b (relative agonistic activity) (medaka MTNR1b [8]; 24 h): 101.4 ± 2.8%
RAA (%) MTNR1b (relative agonistic activity) (medaka MTNR1b [8]; [11]): equivalent to that of melatonin
EC50 (medaka MTNR1b [8]; stably transfected Hepa-E1 cells, 6.25 × 10^−7 M forskolin, 24 h, NC: not calculable (low activity, curve did not reach maximum), read-out: Potency (M) MTNR1b): 3.9e-11 M

CCC(=O)NC1Cc2ccccc2C(c2ccccc2)C1 (stereo not shown) [4P-PDOT]
agonistic effect on MTNR1c (medaka MTNR1c [2]; reporter assay without melatonin): no agonistic effects
RAA (%) MTNR1a-like (relative agonistic activity) [3, 9]: 68.7% and 68.7 ± 6.4%
agonistic activity in medaka MTNR1d [3]: exhibited agonistic activity
EC50 [3, 12]: 1.2e-07 M
agonistic activity in medaka MTNR1a (medaka MTNR1a [4]): exhibited agonistic activity
EC50 (medaka MTNR1a [4]; [10]): 4.7e-09 M
AI (%) MTNR1b (antagonistic index) (medaka MTNR1b [6]): 68.3% and 68.3 ± 8.0%
IC50 (medaka MTNR1b [6]; with EC90 melatonin and forskolin, Hepa-E1 cells, 24 h, NC: not calculable, read-out: Potency (M) MTNR1b, antagonist): 1.9e-07 M

COc1ccc2[nH]cc(CCNC(C)=O)c2c1 [Melatonin, N-acetyl-5-methoxytryptamine]
EC50 (medaka MTNR1c [2]): 6.2e-11 M
Emax (medaka MTNR1c [2]; 24 h, 24 h): 100 ± 1.8%
potency for melatonin of MTNR1c compared with MTNR1d/MTNR1a-like (medaka MTNR1c [2]; ratio of potencies between subtypes): more than three hundred-fold
EC50 [3]: 2.2e-08 M
Emax ([3]; 24 h): 100 ± 2.9%
EC50 (medaka MTNR1a [4]): 4.8e-10 M
Emax (medaka MTNR1a [4]; 24 h, read-out: RAA (%) MTNR1a (relative agonistic activity), maximal activity as percentage of that of melatonin, Hepa-E1 cells, forskolin, 24 h, ND: not detected): 100 ± 3.8%
EC50 (medaka MTNR1b [8]): 1.9e-09 M
Emax (medaka MTNR1b [8]; 24 h, read-out: RAA (%) MTNR1b (relative agonistic activity)): 100 ± 4.4%
